The record followed here is patent US5506256A, “Proline derivatives possessing prolyl endopeptidase-inhibitory activity” (Yoshitomi Pharmaceutical Industries, Ltd., priority 1990, dated 1996).

The target of test [1] is T1, chymotrypsin (Bos taurus, UniProt P00766).
T1 construct: purchased Sigma; host or cells: bovine pancreas
The test is described as follows: Determination of chymotrypsin-inhibitory activity. The settings on record: 0.1 μM; read-out: inhibition rate, chymotrypsin. The test is classed as biochemical, bovine. The method, then: (§1) The methods for the measurement of inhibitory activities against various proteases and the method for calculating the inhibition rate are as follows.
Determination of chymotrypsin-inhibitory activity
Similarly, by following the procedure mentioned above, but employing a 50 mM Tris-HCl buffer (pH 8.0) as a buffer for measurement, a 0.2 μM solution of chymotrypsin (derived from bovine pancreas, Sigma) in the same buffer as an enzyme solution and a […] solution of 7-(N-succinyl-leucyl-leucyl-valyl-tyrosyl)-4-methylcoumarinamide (Peptide Institute, Inc.) in the same buffer as a substrate solution, each fluorescence (c1, c2 and c3) was determined, respectively.
(§2) Using the fluorescence x1, x2 and x3 measured in the abovementioned manner, the inhibitory rate against various proteases was calculated by the following formula where x stands for b, c, d, e or f: [formula]

In test [2] the target is T2, trypsin (Bos taurus, UniProt P00760).
T2 construct: purchased Sigma; host or cells: bovine pancreas
T2 sequence (P00760 24-246): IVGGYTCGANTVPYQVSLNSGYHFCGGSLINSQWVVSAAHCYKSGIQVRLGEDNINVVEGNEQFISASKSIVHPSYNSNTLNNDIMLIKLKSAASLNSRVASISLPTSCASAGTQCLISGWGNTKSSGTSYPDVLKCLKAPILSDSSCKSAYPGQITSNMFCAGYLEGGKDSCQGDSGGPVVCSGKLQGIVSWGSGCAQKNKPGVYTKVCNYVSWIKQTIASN
In words: Determination of trypsin-inhibitory activity. The test is classed as biochemical, bovine. The conditions noted are these: 0.1 μM; read-out: inhibition rate, trypsin. As to the method:
as §1
Determination of trypsin-inhibitory activity
In the present invention, a 50 mM Tris-HCl buffer (pH 8.0) was employed as a buffer for measurement.
To a mixture of the above-mentioned buffer (850 μl), a solution of the compounds of the present invention in the same buffer (50 μl) and a 0.02 μM solution of trypsin (derived from bovine pancreas, Sigma) in the same buffer (50 μl) was added a 200 μM solution of 7-(prolyl-phenylaranyl-arginyl)-4-methylcoumarinamide (Peptide Institute, Inc.) in the same buffer (50 μl),and the mixture was incubated at 30° C. for 1 hour. The reaction mixture was immersed in ice (0° C.) to terminate the reaction, and the fluorescence (b1) was determined 1 hour later (excitation at 370 nm and emission at 440 nm). Concurrently, there were conducted the experiment wherein, in the system above, the trypsin solution was substituted for a buffer alone, and the experiment wherein the solution of the compounds of the present invention was substituted for a buffer above. Each fluorescence (b2 and b3) was determined respectively.
as §2

Test [3] deals with T3, elastase (Sus scrofa, UniProt P00772).
T3 construct: purchased Sigma; host or cells: swine pancreas
T3 sequence (P00772 27-266): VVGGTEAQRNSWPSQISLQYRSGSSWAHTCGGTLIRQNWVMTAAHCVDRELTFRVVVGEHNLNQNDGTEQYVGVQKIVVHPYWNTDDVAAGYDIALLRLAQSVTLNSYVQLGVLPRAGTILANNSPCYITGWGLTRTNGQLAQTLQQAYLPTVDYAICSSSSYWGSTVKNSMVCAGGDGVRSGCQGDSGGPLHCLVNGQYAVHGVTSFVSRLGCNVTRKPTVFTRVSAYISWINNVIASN
In words: Determination of elastase-inhibitory activity. The test is classed as biochemical, swine. The settings on record: 0.1 μM; read-out: inhibition rate, elastase. The method, then:
as §1
Determination of elastase-inhibitory activity
Similarly, by following the procedure mentioned above, but employing a 1 mM Tris-HCl buffer (pH 8.5) as a buffer for measurement, a 0.2 μM solution of elastase (derived from swine pancreas, Sigma) in the same buffer as an enzyme solution and a 200 μM solution of 7-(N-succinyl-aranyl-prolyl-aranyl)-4-methylcoumarinamide (Peptide Institute, Inc.) in the same buffer as a substrate solution, each fluorescence (e1, e2 and e3) was determined, respectively.
as §2

The target of test [4] is T4, cathepsin B (Bos taurus, UniProt P07688).
T4 construct: purchased Sigma; host or cells: bovine spleen
In words: Determination of cathepsin B-inhibitory activity. The test is classed as biochemical, bovine. The conditions noted are these: 0.1 μM; read-out: inhibition rate, cathepsin B. As to the method:
as §1
Determination of cathepsin B-inhibitory activity
Similarly, by following the procedure mentioned above, but employing a 100 mM sodium phosphate buffer (pH 6.0; containing 1.33 mM EDTA Na2) as a buffer for measurement, a 0.02 μM solution of cathepsin B (derived from bovine spleen, Sigma) in the same buffer as an enzyme solution and a 200 μM solution of 7-(N-benzyloxycarbonyl-phenylaranyl-arginyl)-4-methylcoumarinamide (Peptide Institute, Inc.) in the same buffer as a substrate solution, each fluorescence (f1, f2 and f3) was determined, respectively.
as §2

In test [5] the test system is leucine aminopeptidase. The test is described as follows: Determination of leucine aminopeptidase-inhibitory activity. Type of test: biochemical, swine. Further details: unit not given here. The conditions noted are these: 0.1 μM. As to the method:
as §1
Determination of leucine aminopeptidase-inhibitory activity
Similarly, by following the procedure mentioned above, but employing a 50 mM Tris-HCl buffer (pH 8.0) as a buffer for measurement, a […] solution of leucine aminopeptidase (derived from swine kidney, Sigma) in the same buffer as an enzyme solution and a 200 μM solution of 7-leucyl-4-methyl-coumarinamide (Peptide Institute, Inc.) in the same buffer as a substrate solution, each fluorescence (d1, d2 and d3) was determined, respectively.
as §2

Test [6] concerns the target T5, prolyl endopeptidase (Rattus norvegicus, UniProt O70196).
T5 construct: prolyl endopeptidase extracted from rat brain; from tissue; host or cells: rat brain
The test is described as follows: Prolyl endopeptidase-inhibitory activity. The test is classed as biochemical. The settings on record: for inhibition at 0.1 µM: read-out: inhibition rate, prolyl endopeptidase. The method, then:
Prolyl endopeptidase-inhibitory activity
A mixture of a 0.1M potassium sodium phosphate buffer (pH 7.0) (2675 μl), a solution of the compounds of the present invention in a 0.1M potassium sodium phosphate buffer (pH 7.0) (100 μl) and a solution of prolyl endopeptidase extracted from rat brain in a 25 mM sodium phosphate buffer (100 μl) [123 unit/1, pH 6.8, containing 1 mM dithiothreitol and 0.5 mM EDTA, prepared by the method described in J. Neurochem., 35, 527 (1980)]was preincubated at 30° C. for 30 minutes. Thereto was added a 0.2 mM solution of 7-(N-succinyl-glycyl-prolyl)-4-methylcoumarinamide (Peptide Institute, INC.) in a 0.1M potassium sodium phosphate buffer (pH 7.0) (125 μl), and the mixture was incubated at 30° C. for 1 hour. The reaction mixture was immersed in ice (0° C.) to terminate the reaction, and the fluorescence (a1) was determined ten minutes later (excitation at 370 nm and emission at 440 nm). Concurrently, there were conducted the experiment wherein, in the above system, the prolyl endopeptidase solution was substituted for a 25 mM sodium phosphate buffer (pH 6.8, containing 1 mM dithiothreitol and 0.5 mM EDTA) and the experiment wherein the solution of the compounds of the present invention was substituted for a 0.1M potassium sodium phosphate buffer (pH 7.0). Each fluorescence (a2 and a3) was determined respectively [See Tanpakushitsu Kakusan Koso, 29, 127 (1984)]. The prolyl endopeptidase-inhibition rate was calculated by the following formula, and IC50, a concentration of a compound producing 50% inhibition, was estimated by semilogarithmic graph paper. [formula] […]

Setting [7] is: prolyl endopeptidase extracted from rat brain, pH 7.0, 30° C., read-out: IC50.

SMILES strings stand for the structures. Like-named read-outs stand apart in the source and are kept apart here.

T5 sequence (O70196 whole entry): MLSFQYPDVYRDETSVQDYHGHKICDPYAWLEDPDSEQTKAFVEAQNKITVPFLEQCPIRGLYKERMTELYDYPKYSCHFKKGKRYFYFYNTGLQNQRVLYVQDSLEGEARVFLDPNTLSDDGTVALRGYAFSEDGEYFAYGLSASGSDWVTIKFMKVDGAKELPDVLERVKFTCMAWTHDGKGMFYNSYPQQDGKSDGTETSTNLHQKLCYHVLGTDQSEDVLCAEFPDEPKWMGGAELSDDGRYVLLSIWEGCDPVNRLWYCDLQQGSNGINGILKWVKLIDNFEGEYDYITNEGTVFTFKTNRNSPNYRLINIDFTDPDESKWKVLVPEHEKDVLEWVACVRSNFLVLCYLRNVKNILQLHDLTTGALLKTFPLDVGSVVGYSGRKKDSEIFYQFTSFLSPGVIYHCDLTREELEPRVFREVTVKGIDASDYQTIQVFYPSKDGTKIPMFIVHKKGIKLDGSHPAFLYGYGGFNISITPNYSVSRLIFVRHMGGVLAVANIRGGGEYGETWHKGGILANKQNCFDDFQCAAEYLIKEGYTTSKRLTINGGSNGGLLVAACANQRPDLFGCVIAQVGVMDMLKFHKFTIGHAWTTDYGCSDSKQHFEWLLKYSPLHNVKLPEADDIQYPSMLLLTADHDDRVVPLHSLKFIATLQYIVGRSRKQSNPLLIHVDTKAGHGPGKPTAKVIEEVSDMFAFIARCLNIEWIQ

Broadly, the inhibition is how much of the control response was suppressed. As a reminder, the IC50 is the concentration that gives 50% inhibition. Regarding `O=C(CSc1ccccc1)[C@@H]1CCCN1C(=O)[C@@H]1CCCN1C(=O)OCc1ccccc1` [Compound 1, (2S)-1-(N-Benzyloxycarbonyl-L-prolyl)-2-[(Phenylthio)acetyl]-pyrrolidine], the inhibition at 0.1 µM in test [1] is 20%; in test [2], 0%; in test [3], 0%; in test [4] it was 0%; in test [6], 90%. In test [5], the “inhibition rate, leucine aminopeptidase” value came out at 0. Further, in test [6] (setting [7]), the IC50 amounted to 0.3 nM.
For `O=C(C[S+]([O-])c1ccccc1)[C@@H]1CCCN1C(=O)[C@@H]1CCCN1C(=O)OCc1ccccc1` (stereo partly drawn) [Compound 2, (2S)-1-(N-Benzyloxycarbonyl-L-prolyl)-2-[(phenylsulfinyl)-acetyl]pyrrolidine], the inhibition at 0.1 µM was 0% in test [1]; 0% in test [2]; 0% in test [3]; 0% in test [4]; 100% in test [6]. In test [5], the “inhibition rate, leucine aminopeptidase” value was 0. Besides, in test [6] (setting [7]), the IC50 was determined as 1.2 nM.
Consider `O=C(CS(=O)(=O)c1ccccc1)[C@@H]1CCCN1C(=O)[C@@H]1CCCN1C(=O)OCc1ccccc1` [Compound 3, (2S)-1-(N-Benzyloxycarbonyl-L-prolyl)-2-[(phenylsulfonyl)-acetyl]pyrrolidine], for which the inhibition at 0.1 µM in test [1] was found to be 0%; in test [2], 0%; in test [3], 0%; in test [4], 0%; in test [6], 91%. Also, in test [5], the “inhibition rate, leucine aminopeptidase” value was 0. The IC50 in test [6] (setting [7]) turned out to be 12 nM.
With `O=C(COc1ccccc1)[C@@H]1CCCN1C(=O)[C@@H]1CCCN1C(=O)OCc1ccccc1` [Compound 4, (2S)-1-(N-Benzyloxycarbonyl-L-prolyl)-2-(phenoxyacetyl)-pyrrolidine], the inhibition at 0.1 µM in test [1] was determined as 0%; in test [2], 0%; in test [3] it was 0%; in test [4], 0%; in test [6], 98%. In addition, in test [5], the “inhibition rate, leucine aminopeptidase” value is 0. Further, in test [6] (setting [7]), the IC50 was 0.3 nM.
On to `O=C(C[S+]([O-])c1ccccc1)[C@@H]1CCCN1C(=O)[C@@H]1CCCN1C(=O)CCCc1ccccc1` (stereo partly drawn) [Compound 5, (2S)-1-[N-(4-Phenylbutyryl)-L-prolyl]-2-[(phenylsulfinyl)-acetyl]pyrrolidine], for which the inhibition at 0.1 µM in test [1] came out at 0%; in test [2], 0%; in test [3] it was 0%; in test [4], 0%; in test [6], 98%. Besides, in test [5], the “inhibition rate, leucine aminopeptidase” value was 0. Moreover, the IC50 in test [6] (setting [7]) turned out to be 0.3 nM.
On to `COc1ccc([S+]([O-])CC(=O)[C@@H]2CCCN2C(=O)[C@@H]2CCCN2C(=O)OCc2ccccc2)cc1` (stereo partly drawn) [Compound 6, (2S)-1-(N-Benzyloxycarbonyl-L-prolyl)-2-[(4-methoxyphenylsulfinyl)acetyl]pyrrolidine], for which the inhibition at 0.1 µM in test [1] stood at 0%; in test [2], 0%; in test [3] it was 0%; in test [4] it was 20%; in test [6] it was 98%. Moreover, in test [5], the “inhibition rate, leucine aminopeptidase” value was determined as 0. Further, the IC50 in test [6] (setting [7]) came to 0.65 nM.
Take `O=C(C[S+]([O-])c1ccc([N+](=O)[O-])cc1)[C@@H]1CCCN1C(=O)[C@@H]1CCCN1C(=O)OCc1ccccc1` (stereo partly drawn) [Compound 7, (2S)-1-(N-Benzyloxycarbonyl-L-prolyl)-2-[(4-nitrophenylsulfinyl)acetyl]pyrrolidine]: the inhibition at 0.1 µM turned out to be 0% in test [1]; 0% in test [2]; 0% in test [3]; 20% in test [4]; 97% in test [6]. The “inhibition rate, leucine aminopeptidase” value in test [5] amounted to 0. Also, in test [6] (setting [7]), the IC50 amounted to 1 nM.
As for `CC(C)[S+]([O-])CC(=O)[C@@H]1CCCN1C(=O)[C@@H]1CCCN1C(=O)OCc1ccccc1` (stereo partly drawn) [Compound 8, (2S)-1-(N-Benzyloxycarbonyl-L-prolyl)-2-[(isopropylsulfinyl)-acetyl]pyrrolidine], the inhibition at 0.1 µM in test [1] was found to be 0%; in test [2] it was 0%; in test [3], 0%; in test [4], 0%; in test [6], 92%. Also, the “inhibition rate, leucine aminopeptidase” value in test [5] came to 0. The half-inhibitory concentration (IC50) in test [6] (setting [7]) amounted to 3 nM.
Consider `O=C(C[S@+]([O-])c1ccccc1)[C@@H]1CCCN1C(=O)[C@@H]1CCCN1C(=O)OCc1ccccc1` [Compound 9, (2S)-1-(N-Benzyloxycarbonyl-L-prolyl)-2-{[(S)-phenylsulfinyl]-acetyl}pyrrolidine], for which the inhibition at 0.1 µM in test [1] was 0%; in test [2] it was 0%; in test [3], 0%; in test [4] it was 0%; in test [6] it was 98%. Moreover, the “inhibition rate, leucine aminopeptidase” value in test [5] was 0. Moreover, the IC50 in test [6] (setting [7]) was 0.2 nM.
As for `O=C(COc1ccc2c(c1)OCO2)[C@@H]1CCCN1C(=O)[C@@H]1CCCN1C(=O)NCc1ccccc1` [Compound 33, (2S)-1-[N-(Benzylaminocarbonyl)-L-prolyl]-2-{[(3,4-methylenedioxy)phenoxy]acetyl} pyrrolidine], the inhibition at 0.1 µM in test [1] came out at 0%; in test [2] it was 0%; in test [3], 0%; in test [4], 0%; in test [6], 96%. Moreover, in test [6], half-maximal inhibition (IC50) required 1 nM.
